# Reference: US9440952B2, “Compounds inhibiting leucine-rich repeat kinase enzyme activity” (Merck Sharp & Dohme Corp., priority 2013, dated 2016)
# pIC50: −log10 of the molar value.
# Target: T1, LRRK2(G2019S mutation, GST-LRRK2(amino acids 970-2527)) (Homo sapiens, UniProt Q5S007, G2019S)
# T1 construct: GST-LRRK2(amino acids 970-2527); GST (N); purchased Life Technologies Corporation
# Test: LRRK2 Km ATP LanthaScreen Assay
# Type: biochemical
# Conditions: Km ATP LanthaScreen Assay; LRRK2 G2019S; mean IC50 values; read-out: LRRK2 IC50
# Description: Unless otherwise noted, all LRRK2 IC50 data presented in tables refers to the LRRK2 Km ATP LanthaScreen™ Assay that is described in the Biological Assay section.
# The data presented for the 5 mM and Km ATP LanthaScreen™ Assay represents mean IC50 values based on several test results and may have reasonable. deviations depending on the specific conditions and reagents used. Reagents for the LRRK2 5 mM and Km ATP LanthaScreen™ Assay were purchased from Life Technologies Corporation.
# Results are analysed using Assay Data Analyzer.
# T1 sequence (Q5S007 970-2527 G2019S): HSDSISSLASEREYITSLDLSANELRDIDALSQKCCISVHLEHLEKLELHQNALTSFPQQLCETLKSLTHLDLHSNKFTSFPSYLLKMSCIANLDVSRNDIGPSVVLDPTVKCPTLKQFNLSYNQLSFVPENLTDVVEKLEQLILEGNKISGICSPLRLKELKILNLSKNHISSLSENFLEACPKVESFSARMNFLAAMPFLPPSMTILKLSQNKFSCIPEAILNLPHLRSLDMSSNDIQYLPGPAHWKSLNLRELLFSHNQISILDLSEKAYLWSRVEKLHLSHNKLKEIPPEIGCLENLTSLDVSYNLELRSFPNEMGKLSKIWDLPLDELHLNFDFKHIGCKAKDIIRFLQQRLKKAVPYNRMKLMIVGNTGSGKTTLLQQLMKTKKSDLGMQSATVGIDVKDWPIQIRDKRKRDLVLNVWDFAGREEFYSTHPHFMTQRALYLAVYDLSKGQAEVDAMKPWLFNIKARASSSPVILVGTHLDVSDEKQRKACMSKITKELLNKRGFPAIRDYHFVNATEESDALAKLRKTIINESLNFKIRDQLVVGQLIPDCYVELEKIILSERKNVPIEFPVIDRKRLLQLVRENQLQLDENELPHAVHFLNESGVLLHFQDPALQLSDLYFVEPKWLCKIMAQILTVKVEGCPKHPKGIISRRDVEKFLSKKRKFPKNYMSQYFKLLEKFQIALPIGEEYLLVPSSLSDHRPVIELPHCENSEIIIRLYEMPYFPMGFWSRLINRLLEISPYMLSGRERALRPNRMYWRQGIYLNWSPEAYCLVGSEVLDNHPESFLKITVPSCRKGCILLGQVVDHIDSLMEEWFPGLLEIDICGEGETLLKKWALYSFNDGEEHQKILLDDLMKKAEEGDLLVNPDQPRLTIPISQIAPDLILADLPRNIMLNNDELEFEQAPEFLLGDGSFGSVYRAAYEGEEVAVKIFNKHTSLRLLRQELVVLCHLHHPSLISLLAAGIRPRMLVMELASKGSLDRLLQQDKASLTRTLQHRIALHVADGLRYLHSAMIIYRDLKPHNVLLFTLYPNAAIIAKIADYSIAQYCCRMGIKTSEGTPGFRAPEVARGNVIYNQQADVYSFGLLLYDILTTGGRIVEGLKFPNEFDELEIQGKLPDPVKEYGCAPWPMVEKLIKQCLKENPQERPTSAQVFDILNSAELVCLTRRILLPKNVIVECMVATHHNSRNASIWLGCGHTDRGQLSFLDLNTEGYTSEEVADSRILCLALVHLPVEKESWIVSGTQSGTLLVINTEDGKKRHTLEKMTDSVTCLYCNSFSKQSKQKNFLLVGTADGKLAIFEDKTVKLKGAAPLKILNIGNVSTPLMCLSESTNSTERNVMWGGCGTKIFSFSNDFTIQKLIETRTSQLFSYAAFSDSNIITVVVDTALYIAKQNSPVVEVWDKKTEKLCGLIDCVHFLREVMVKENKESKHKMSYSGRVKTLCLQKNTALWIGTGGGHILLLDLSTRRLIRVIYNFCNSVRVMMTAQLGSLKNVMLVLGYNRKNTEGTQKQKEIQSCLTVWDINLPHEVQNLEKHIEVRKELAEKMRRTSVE
row,Compound,pIC50
1,c1cc(-c2n[nH]c3ccc(CN4CCCCC4)cc23)cc(N2CCOCC2)n1 [Example 88],6.79
2,CN(C)Cc1ccc2[nH]nc(-c3ccnc(N4CCOCC4)c3)c2c1 [Example 89],7.46
3,CNCc1ccc2[nH]nc(-c3ccnc(N4CCOCC4)c3)c2c1 [Example 90],6.52
4,COC1CN(Cc2ccc3[nH]nc(-c4ccnc(N5CCOCC5)c4)c3c2)C1 [Example 91],6.79
5,CN(Cc1ccc2[nH]nc(-c3ccnc(N4CCOCC4)c3)c2c1)C1CCCC1 [Example 92],7.27
6,N#CCCNCc1ccc2[nH]nc(-c3ccnc(N4CCOCC4)c3)c2c1 [Example 93],7.52
7,CN(Cc1ccc2[nH]nc(-c3ccnc(N4CCOCC4)c3)c2c1)Cc1ccco1 [Example 94],7.89
8,CCN(CC)CCNCc1ccc2[nH]nc(-c3ccnc(N4CCOCC4)c3)c2c1 [Example 95],6.56
9,c1cc(-c2n[nH]c3ccc(CNC4CCCNC4)cc23)cc(N2CCOCC2)n1 (stereo not drawn) [Example 96],6.96
10,c1ccc(COc2ccnc(-c3ccc4[nH]nc(-c5ccnc(N6CCOCC6)c5)c4c3)n2)cc1 [Example 101],6.74
11,COc1cnccc1-c1ccc2[nH]nc(-c3ccnc(N4CCOCC4)c3)c2c1 [Example 102],9.70
12,CN(C)c1cc(-c2n[nH]c3ccc(Nc4cccc(S(C)(=O)=O)c4)cc23)ccn1 [Example 109],7.47
13,CC(C)CCNc1cc(-c2n[nH]c3ccc(Nc4cccc(S(C)(=O)=O)c4)cc23)ccn1 [Example 110],7.08
14,CCNc1cc(-c2n[nH]c3ccc(Nc4cccc(S(C)(=O)=O)c4)cc23)ccn1 [Example 111],7.46
15,CS(=O)(=O)c1cccc(Nc2ccc3[nH]nc(-c4ccnc(NC5CC5)c4)c3c2)c1 [Example 112],7.96
16,COC1CCN(c2cc(-c3n[nH]c4ccc(-c5ccnc(O)c5)cc34)ccn2)CC1 [Example 122],8.96
17,CN1CCN(c2cc(-c3n[nH]c4ccc(-c5ccnc(O)c5)cc34)ccn2)CC1 [Example 123],8.57
18,CC(O)c1ccc2[nH]nc(-c3ccnc(N4CCOC(CCO)C4)c3)c2c1 (stereo not drawn) [Example 127],7.77
19,OCCC1CN(c2cc(-c3n[nH]c4ccc(CO)cc34)ccn2)CCO1 (stereo not drawn) [Example 128],8.00

row,Compound,pIC50
1,CC(CO)Nc1cc(-c2n[nH]c3ccc(OC(C)C)cc23)ccn1 (stereo not drawn) [Example 129],5.67
2,CC(C)Oc1ccc2[nH]nc(-c3ccnc(NC4Cc5ccccc5C4)c3)c2c1 [Example 130],7.88
3,CC(C)Oc1ccc2[nH]nc(-c3ccnc(N4CCCC(CO)C4)c3)c2c1 (stereo not drawn) [Example 131],8.82
4,CC(C)Oc1ccc2[nH]nc(-c3ccnc(NCc4ccccn4)c3)c2c1 [Example 132],8.66
5,CC(C)Oc1ccc2[nH]nc(-c3ccnc(NCCc4ccccn4)c3)c2c1 [Example 133],9.10
6,CC(C)Oc1ccc2[nH]nc(-c3ccnc(NCC4CC4)c3)c2c1 [Example 134],8.70
7,CC(C)Oc1ccc2[nH]nc(-c3ccnc(NCC4CCCO4)c3)c2c1 (stereo not drawn) [Example 135],8.49
8,COCCN(C)c1cc(-c2n[nH]c3ccc(OC(C)C)cc23)ccn1 [Example 136],8.31
9,CC(C)Oc1ccc2[nH]nc(-c3ccnc(NC4CC4)c3)c2c1 [Example 137],7.61
10,COC1CCCN(c2cc(-c3n[nH]c4ccc(OC(C)C)cc34)ccn2)C1 (stereo not drawn) [Example 138],7.94
11,CC(C)Oc1ccc2[nH]nc(-c3ccnc(N4CCc5ccccc5C4)c3)c2c1 [Example 139],7.74
12,CC(C)Oc1ccc2[nH]nc(-c3ccnc(NCCO)c3)c2c1 [Example 140],8.14
13,Cc1cc(C(=O)Nc2cc(-c3n[nH]c4ccc(OC(C)C)cc34)ccn2)n(C)n1 [Example 141],7.29
14,CC(C)Oc1ccc2[nH]nc(-c3ccnc(NC(=O)c4ccno4)c3)c2c1 [Example 142],7.67
15,CC(C)Oc1ccc2[nH]nc(-c3ccnc(NC(=O)c4ccc(C#N)cc4)c3)c2c1 [Example 143],6.95
16,CC(C)Oc1ccc2[nH]nc(-c3ccnc(NC(=O)c4ccccn4)c3)c2c1 [Example 144],7.53
17,CC(C)Oc1ccc2[nH]nc(-c3ccnc(NC(=O)c4ccc5c(c4)C(=O)NC5)c3)c2c1 [Example 145],7.28
18,CC(C)Oc1ccc2[nH]nc(-c3ccnc(NC(=O)c4ccccc4-n4cncn4)c3)c2c1 [Example 146],7.43
19,CC(C)Oc1ccc2[nH]nc(-c3ccnc(NC(=O)c4cnc(C(C)C)nc4)c3)c2c1 [Example 147],7.15

row,Compound,pIC50
1,CC(C)Oc1ccc2[nH]nc(-c3ccnc(NC(=O)c4ccnc(-n5cnnn5)c4)c3)c2c1 [Example 148],7.62
2,CC(C)CCC(=O)Nc1cc(-c2n[nH]c3ccc(OC(C)C)cc23)ccn1 [Example 149],7.10
3,COCCC(=O)Nc1cc(-c2n[nH]c3ccc(OC(C)C)cc23)ccn1 [Example 150],7.29
4,CC(C)Oc1ccc2[nH]nc(-c3ccnc(NC(=O)C(C)c4ccccc4)c3)c2c1 (stereo not drawn) [Example 151],7.28
5,CC(C)Oc1ccc2[nH]nc(-c3ccnc(NC(=O)CC4CC4)c3)c2c1 [Example 152],7.45
6,CC(C)Oc1ccc2[nH]nc(-c3ccnc(NC(=O)C4CC(=O)C4)c3)c2c1 [Example 153],7.53
7,CC(C)Oc1ccc2[nH]nc(-c3ccnc(NC(=O)C(C)C)c3)c2c1 [Example 154],7.40
8,Cc1cc(CC(=O)Nc2cc(-c3n[nH]c4ccc(OC(C)C)cc34)ccn2)on1 [Example 155],7.87
9,CC(C)Oc1ccc2[nH]nc(-c3ccnc(NC(=O)C4CCCC4)c3)c2c1 [Example 156],7.27
10,CC(C)Oc1ccc2[nH]nc(-c3ccnc(NC(=O)Cc4ccsc4)c3)c2c1 [Example 157],7.46
11,CC(C)Oc1ccc2[nH]nc(-c3ccnc(NC(=O)C4CC4c4cncnc4)c3)c2c1 (stereo not drawn) [Example 158],7.51
12,COc1ccc(C2CC2C(=O)Nc2cc(-c3n[nH]c4ccc(OC(C)C)cc34)ccn2)cc1 (stereo not drawn) [Example 159],6.11
13,CC(C)Oc1ccc2[nH]nc(-c3ccnc(NC(=O)C4CC45CCCC5)c3)c2c1 (stereo not drawn) [Example 160],6.85
14,Cc1nonc1CC(=O)Nc1cc(-c2n[nH]c3ccc(OC(C)C)cc23)ccn1 [Example 161],7.49
15,CC(C)Oc1ccc2[nH]nc(-c3ccnc(NC(=O)CCc4cnn(C)c4)c3)c2c1 [Example 162],7.57
16,Cc1nc(C)c(CC(=O)Nc2cc(-c3n[nH]c4ccc(OC(C)C)cc34)ccn2)s1 [Example 163],7.46
17,CC(C)Oc1ccc2[nH]nc(-c3ccnc(NC(=O)C4CCOCC4)c3)c2c1 [Example 164],7.56
18,CC(C)Oc1ccc2[nH]nc(-c3ccnc(NC(=O)CC4CCC(=O)N4)c3)c2c1 (stereo not drawn) [Example 165],7.63
19,CC(C)Oc1ccc2[nH]nc(-c3ccnc(NC(=O)C4CC(F)(F)C4)c3)c2c1 [Example 166],7.13

# Same assay, conditions: Km ATP LanthaScreen; mean IC50 of several tests; read-out: LRRK2 IC50
row,Compound,pIC50
1,FCOc1ccc2[nH]nc(-c3ccnc(N4CCOCC4)c3)c2c1 [Example 85],7.99
2,OCc1ccc2[nH]nc(-c3ccnc(N4CCOCC4)c3)c2c1 [Example 86],7.79
3,c1cc(-c2n[nH]c3ccc(CNCC4CC4)cc23)cc(N2CCOCC2)n1 [Example 87],6.37
4,c1cc(-c2ccc3[nH]nc(-c4ccnc(N5CCOCC5)c4)c3c2)ccn1 [Example 97],7.86
5,c1cncc(-c2ccc3[nH]nc(-c4ccnc(N5CCOCC5)c4)c3c2)c1 [Example 98],8.47
6,c1ccc(-c2ccc3[nH]nc(-c4ccnc(N5CCOCC5)c4)c3c2)nc1 [Example 99],7.86
7,Oc1cc(-c2ccc3[nH]nc(-c4ccnc(N5CCOCC5)c4)c3c2)ccn1 [Example 100],8.47
8,Brc1ccc2c(-c3ccnc(N4CCOCC4)c3)n[nH]c2c1 [Example 103],7.72
9,Cc1ccc2c(-c3ccnc(N4CCOCC4)c3)n[nH]c2c1 [Example 104],7.46
10,COc1ccc2c(-c3ccnc(N4CCOCC4)c3)n[nH]c2c1 [Example 105],7.52
11,N#Cc1ccc2c(-c3ccnc(N4CCOCC4)c3)n[nH]c2c1 [Example 106],7.31
12,O=C(c1ccccc1)c1ccc2[nH]nc(-c3ccnc(N4CCOCC4)c3)c2c1 [Example 107],8.47
13,CS(=O)(=O)c1cccc(Nc2ccc3[nH]nc(-c4ccnc(N5CCOCC5)c4)c3c2)c1 [Example 108],8.03
14,COc1ccccc1Nc1cc(-c2n[nH]c3ccc(Nc4cccc(S(C)(=O)=O)c4)cc23)ccn1 [Example 113],6.37
15,Cc1cccc(Nc2ccc3[nH]nc(-c4ccnc(N5CCOCC5)c4)c3c2)c1 [Example 114],7.54
16,CCN(c1cccc(C)c1)c1ccc2[nH]nc(-c3ccnc(N4CCOCC4)c3)c2c1 [Example 115],5.80
17,c1ccc(Cc2ccc3[nH]nc(-c4ccnc(N5CCOCC5)c4)c3c2)cc1 [Example 116],7.35
18,COc1ccnc(F)c1-c1ccc2[nH]nc(-c3ccnc(N4CCOCC4)c3)c2c1 [Example 117],8.47
19,Oc1ccncc1-c1ccc2[nH]nc(-c3ccnc(N4CCOCC4)c3)c2c1 [Example 118],7.15
20,Oc1ccnc(F)c1-c1ccc2[nH]nc(-c3ccnc(N4CCOCC4)c3)c2c1 [Example 119],7.47
21,Oc1cc(-c2ccc3[nH]nc(-c4ccnc(N5CCNCC5)c4)c3c2)ccn1 [Example 120],8.47
22,Cc1ccc2[nH]nc(-c3ccnc(N4CCOCC4)c3)c2c1 [Example 124],8.02
23,c1ccc(-c2ccc3c(-c4ccnc(N5CCOCC5)c4)n[nH]c3c2)cc1 [Example 125],7.47
24,CC(O)c1ccc2[nH]nc(-c3ccnc(N4CCOCC4)c3)c2c1 (stereo not drawn) [Example 126],8.00
